Results: article PMC8911181, “A Novel CDK4/6 and PARP Dual Inhibitor ZC-22 Effectively Suppresses Tumor Growth and Improves the Response to Cisplatin Treatment in Breast and Ovarian Cancer” (International Journal of Molecular Sciences, 2022)

Test system: CDK4/6-mediated phosphorylation of Rb
Assay: Western blot of p-Rb/Rb
Assay type: cell-based, human
Settings: MDA-MB-231 (2 μM) and OVCAR5 (0.5 μM) cells, 24 h
Method: Cells were washed with PBS, collected with scraper, and then lysed in RIPA buffer containing 1× protease and phosphatase inhibitors for 30 min on ice. The supernatants were collected by centrifugation at full speed for 10 min at 4 °C and subjected to SDS-PAGE followed by immunoblotting as described before. Signals were detected using enhanced chemiluminescence (Millipore, Burlington, MA, USA) and captured by the G: BOX Chemi XRQ gel doc System (Syngene, Cambridge, UK).
Figure 3 ZC-22 inhibits CDK4/6 and PARP to induce cell-cycle arrest, DNA damage, and apoptosis in breast and ovarian cancer cells. (A,B) MDA-MB-231 cells were treated with 2 μM LY2835219 (LY-2) or ZC-22. […] The levels of CDK4/6 and p-Rb/Rb were determined by Western blot (A). Cell-cycle distribution was analyzed by flow cytometry (B). […] (D,E) Representative pictures (left) and quantification of percentage (right) of γH2A.X-positive cells in MDA-MB-231 cells treated with 2 μM OLA or ZC-22 for 24 h (D), or OVCAR5 cells treated with 0.5 μM OLA or ZC-22 for 24 h (E). Values are means ± SD, n = 3. * p < 0.05, ** p < 0.01, and *** p < 0.001 for comparisons with the DMSO-treated group. p value was calculated using an unpaired t-test. […] Values are means ± SD, n = 3. * p < 0.05, ** p < 0.01, and *** p < 0.001 vs. the DMSO-treated group. p value was calculated using an unpaired t-test. […]

Row | Structure (SMILES) | inhibitory activity on CDK4/6-mediated phosphorylation of Rb
1 | Cc1nc2c(F)cc(-c3nc(Nc4ccc(N5CCN(C(=O)c6cc(Cc7n[nH]c(=O)c8ccccc78)ccc6F)CC5)cn4)ncc3F)cc2n1C(C)C [ZC-22, 4-(4-fluoro-3-(4-(6-((5-fluoro-4-(4-fluoro-1-isopropyl-2-methyl-1H-benzo[d]imidazole-6-yl)pyrimidin-2-yl)amino)pyridin-3-yl)piperazine-1-carbonyl)benzyl)phthalazin-1(2H)-one] | equal inhibitory activity
2 | CCN1CCN(Cc2ccc(Nc3ncc(F)c(-c4cc(F)c5nc(C)n(C(C)C)c5c4)n3)nc2)CC1 [LY2835219, Abemaciclib, reference compound] | equal inhibitory activity
